Experiments:
mdx mouse = mdx mouse model for Duchenne Muscular Dystrophy, longterm treatment; type: in vivo; settings: mdx mice, 4 weeks; for adverse effects upon longterm treatment: 20 mg/kg every 2nd day
Protocol: The mdx mouse is a well established animal model for Duchenne Muscular Dystrophy (Bulfield G., Siller W. G., Wight P. A., Moore K. J., X chromosome-linked muscular dystrophy (mdx) in the mouse, Proc. Natl. Acad. Sci. USA., 1984, 81(4), 1189-1192). Selected compounds were tested in longterm treatments of mdx mice, according to the procedures described below.
Mouse strains: C57BL/10scsn and C57BL/10scsn mdx mouse strains were purchased at The Jackson Laboratory (ME, USA) and bred inhouse. Mouse males were sacrificed at the age of 3 or 7 weeks by CO2 asphyxiation.
Treatment: Compounds were dissolved in 50% PEG, 50% saline solution and applied by i.p. injection.
Histology: Tibialis anterior (TA), quadriceps (Quad), and diaphragm (Dia) muscles were collected and mounted on cork supports using gum tragacanth (Sigma-Aldrich, Germany). The samples were snap-frozen in melting isopentane and stored at −80° C. 12 μm thick cryosections of the mid-belly region of muscles were prepared. For staining, sections were air dried and fixed with 4% PFA in PBS for 5 minutes, washed 3 times with PBS and incubated over night at 4° C. in PBS containing 2 μg/ml Alexa Fluor™ 488 conjugated wheat-germ agglutinin (WGA-Alexa, Molecular Probes, Eugen, Oreg., USA) to stain membrane-bound and extracellular epitopes and 1 μg/ml 4′,6-diamidino-2-phenylindole (DAPI; Molecular Probes) to stain nuclei.
Image acquisition and analysis: Fluorescence microscopy images of both labels were acquired using a digital camera (ColorView II, Soft Imaging System, Müinster, Germany) coupled to a fluorescence microscope (Vanox S, Olympus, Tokyo, Japan). Combination of these two stainings to a composite image, assembling of several images to a complete image of the entire muscle cross-section and further semi-automated analysis was performed using the image analysis program AnalySIS (Soft Imaging System). Image analysis of 1200-2900 muscle fibers in each section was performed in three steps: 1) determination of the muscle fiber boundaries, 2) determination of the muscle fiber size, and 3) determination of the percentage of muscle fibers containing centralized nuclei. Six different geometrical parameters were tested for the determination of the muscle fiber size: (a) the “minimal feret” (the minimum distance of parallel tangents at opposing borders of the muscle fiber), (b) the “area”, (c) the “minimal inner diameter” (the minimum diameter through the center of the muscle fiber), (d) the “minimal diameter” (the minimum diameter of a muscle fiber for angles in the range 0° through 179° with step width 1°, (e) the “minimal outer diameter” (the minimum diameter through the muscle fiber from outer border to outer border), and (f) the “perimeter”. The variance coefficient of the muscle fiber size is defined as follows: variance coefficient=(standard deviation of the muscle fiber size/mean of the muscle fiber size of the section)*[…]. For statistical analysis of different variance coefficient values Mann-Whitney U test was used.
Selected Examples of the present invention were active in the mdx mouse model at 20 mg/kg every 2nd day, using 3 week old mice and a treatment period of 4 weeks (N=5-10).

[1] = 20 mg/kg every 2nd day i.p., diaphragm, vs vehicle-treated mdx mice
[2] = 20 mg/kg every 2nd day i.p., tibialis anterior, vs vehicle-treated mdx mice

SMILES | decrease in the variance coefficient of the muscle fiber size, Dia (mdx mouse; [1]) [%] | decrease in the variance coefficient of the muscle fiber size, TA (mdx mouse; [2]) [%] | reduction of the percentage of centralized nuclei, TA (mdx mouse; [2]) [%] | adverse effects upon longterm treatment (mdx mouse) | melting point [°C] | reduction of the percentage of centralized nuclei, Dia (mdx mouse; [1]) [%] | decrease in the variance coefficient of the muscle fiber size, Quad (mdx mouse; 20 mg/kg every 2nd day i.p., quadriceps, vs vehicle-treated mdx mice) [%]
CCNC(=O)C(=O)[C@H](Cc1ccc(Cl)cc1)NC(=O)[C@@H](NC(=O)[C@H](Cc1ccccc1)NC(=O)CCCCc1cccs1)C(C)C [Example 1] | 26 | 26 | 17 | No prominent adverse effects |  |  | 
CCNC(=O)C(=O)C(Cc1ccc(Cl)cc1)NC(=O)C(NC(=O)C(Cc1cccc2ccccc12)NC(=O)CCCCc1cccs1)C(C)C (centres unmarked) [Example 22] |  |  |  |  | 238 to 241 |  | 
CCNC(=O)C(=O)C(Cc1ccc(OC)cc1)NC(=O)C(NC(=O)C(CCc1ccccc1)NC(=O)CCc1cccs1)C(C)C (centres unmarked) [Example 520] | 40 |  | 13 | No prominent adverse effects | 238 to 240 | 26 | 31

— patent publication US20080058324A1, “Alpha-Keto Carbonyl Calpain Inhibitors” (SANTHERA PHARMACEUTICALS (SCHWEIZ) AG, priority 2004, published 2008)
